The compounds below were run against T1, recombinant autotaxin (Homo sapiens, UniProt Q13822) (assay: Autotaxin assay (Amplex Red, LPC substrate)). Conditions: 75 μM LPC, Amplex Red fluorescence, ten 1:3 dilutions starting at 30 μM.
T1 construct: made in house; host or cells: Hi5 insect cells (baculovirus)
Assay type: biochemical
Experimental: Autotaxin activity is measured indirectly by means of Amplex Red Reagent. In this course, Amplex Red is measured as fluorogenic indicator for generated H2O2. Autotaxin converts substrate lysophosphatidylcholine (LPC) to phosphocholine and lysophosphatidylic acid (LPA). After the conversion phosphocholine is reacted with alkaline phosphatase to obtain inorganic phosphate and choline. During the next step choline is oxidized with choline oxidase to yield betaine, whereby H2O2 is generated. H2O2 reacts with Amplex Red Reagent in the presence of peroxidase (Horseradish peroxidase) in an 1:1 stochiometry and yields highly fluorescent resorufin. The generated fluorescence is measured in a reaction-dependent kinetic mode in order to enable subtraction of fluorescence signals of possible other fluorescent compounds that are not part of the reaction from total measured fluorescence.
1.5 μl of a standard solution or of the compounds of the invention are dissolved in 20 mM Hepes pH 7.2 with maximally 7.7% DMSO in individual concentrations. The resulting solution is pre-incubated together with 10 μl (16 ng) of highly purified recombinant autotaxin in a black 384-hole microtiter plate for 30 min at 22° C. Thereafter, the reaction is started through the addition of 5 μL-a-lysophosphatidylcholine (LPC), whereby the final concentration of LPC is 75 μM. The mixture is incubated for 90 min. at 37° C. After the incubation Amplex Red Reagent, peroxidase (Horseradish peroxidase) and choline oxidase are added. The fluorescence is immediately measured at a wavelength of 612 nm with an excitation wavelength of 485 nm in a “Tecan Ultra multimode” fluorescence reader. The activity of autotaxin is indirectly calculated via the amount of detected generated H2O2.
For IC50 analysis, ten serial 1:3 dilutions starting at 30 μM for each compound were run in duplicates.
IC50 values were calculated on normalized data. For normalization, control wells were added to each assay plate and the signal of uninhibited control wells was set to 100%, whereas the signal inhibited by 500 μM C14 LPA, (Avanti Polar Lipids, Cat# 857120P) was set to 0%. Curves were fitted and IC50 values calculated by the following model using proprietary analysis software: Y=Bottom+(100−Bottom)/(1+10^((LogIC50−X)*HillSlope))
Where X is the logarithm of concentration. Y is the response; Y starts at Bottom and goes to Top with a sigmoid shape.
Protein: Recombinant autotaxin (baculoviral Hi5 expression)
Substrate: L-a-lysophosphatidyl choline (chicken egg); Avanti Polar Lipids #830071 P
Standard: C14 LPA, Avanti Polar Lipids, Cat# 857120P
Detection Reagent Amplex Red Reagent; Invitrogen #A12222; dissolved in 1.923 ml of DMSO peroxidase Type VI-A (horseradish), Sigma #P6782; dissolved in 7.45 ml of test buffer, Choline Oxidase; Sigma #C5896; dissolved in 2.47 ml test buffer
Detection Reagent Mix: 1:100 dilution of Amplex Red Regent in test buffer
Test buffer: 200 mM Tris-HCl, Merck, Cat # 1.08219, pH 7.9; 0.1% BSA, lipid free, Roche Cat#775835
With c1ccc(CNc2ncc3c(N4CCCC4)nccc3n2)cc1 [Compound 1, Benzyl-(5-pyrrolidin-1-yl-pyrido[4,3-d]pyrimidin-2-yl)-amine] the IC50 was under 30 µM. For Fc1ccc(Nc2nccc3nc(NCc4ccccc4)ncc23)cc1 [Compound 2, N2-Benzyl-N5-(4-fluoro-phenyl)-pyrido[4,3-d]pyrimidine-2,5-diamine], the IC50 was under 30 µM. COc1ccc(Nc2nccc3nc(NCc4ccccc4)ncc23)cc1 [Compound 3, N2-Benzyl-N5-(4-methoxy-phenyl)-pyrido[4,3-d]pyrimidine-2,5-diamine] showed an IC50 of under 30 µM. Compound Fc1ccc(Nc2nccc3nc(NCc4ccccc4)ncc23)c(F)c1 [Compound 4, N2-Benzyl-N5-(2,4-difluoro-phenyl)-pyrido[4,3-d]pyrimidine-2,5-diamine] has an IC50 of under 30 µM. For c1ccc(CNc2ncc3c(Nc4ccc5c(c4)OCO5)nccc3n2)cc1 [Compound 5, N5-Benzo[1,3]dioxol-5-yl-N2-benzyl-pyrido[4,3-d]pyrimidine-2,5-diamine], the IC50 was under 30 µM. COc1ccc(Nc2nccc3nc(NCc4ccccc4)ncc23)cc1OC [Compound 6, N2-Benzyl-N5-(3,4-dimethoxy-phenyl)-pyrido[4,3-d]pyrimidine-2,5-diamine] gave an IC50 of under 30 µM. Cc1cc(F)ccc1Nc1nccc2nc(NCc3ccccc3)ncc12 [Compound 7, N2-Benzyl-N5-(4-fluoro-2-methyl-phenyl)-pyrido[4,3-d]pyrimidine-2,5-diamine] was tested, and the IC50 was under 30 µM. Clc1ccccc1CNc1ncc2c(N3CCCC3)nccc2n1 [Compound 8, (2-Chloro-benzyl)-(5-pyrrolidin-1-yl-pyrido[4,3-d]pyrimidin-2-yl)-amine] gave an IC50 of under 5 µM. COc1ccc(Nc2nccc3nc(NCc4ccccc4Cl)ncc23)cc1 [Compound 9, N2-(2-Chloro-benzyl)-N5-(4-methoxy-phenyl)-pyrido[4,3-d]pyrimidine-2,5-diamine] showed an IC50 of under 30 µM. Work on Clc1ccccc1CNc1ncc2c(NCc3ccccc3Cl)nccc2n1 [Compound 10, N2,N5-Bis-(2-chloro-benzyl)-pyrido[4,3-d]pyrimidine-2,5-diamine] yielded an IC50 of under 30 µM. In the case of Clc1ccccc1CNc1ncc2c(NCc3cccnc3)nccc2n1 [Compound 11, N2-(2-Chloro-benzyl)-N5-pyridin-3-ylmethyl-pyrido[4,3-d]pyrimidine-2,5-diamine], the IC50 is reported as under 30 µM. With COc1ccc(Nc2nccc3nc(NCc4ccccc4Cl)ncc23)cc1OC [Compound 12, N2-(2-Chloro-benzyl)-N5-(3,4-dimethoxy-phenyl)-pyrido[4,3-d]pyrimidine-2,5-diamine] the IC50 was under 30 µM. With CC(=O)c1ccc(Nc2nccc3nc(NCc4ccccc4Cl)ncc23)cc1 [Compound 13, 1-{4-[2-(2-Chloro-benzylamino)-pyrido[4,3-d]pyrimidin-5-ylamino]-phenyl}-ethanone] the IC50 was under 30 µM. With COc1ccc(Nc2nccc3nc(NCc4ccccc4Cl)ncc23)c(OC)c1 [Compound 14, N2-(2-Chloro-benzyl)-N5-(2,4-dimethoxy-phenyl)-pyrido[4,3-d]pyrimidine-2,5-diamine] the IC50 was under 30 µM. CC(C)OCCCNc1nccc2nc(NCc3ccccc3Cl)ncc12 [Compound 15, N2-(2-Chloro-benzyl)-N5-(3-isopropoxy-propyl)-pyrido[4,3-d]pyrimidine-2,5-diamine] was tested, and the IC50 was under 30 µM. Clc1ccccc1CNc1ncc2c(NCCCN3CCCCC3)nccc2n1 [Compound 16, N2-(2-Chloro-benzyl)-N5-(3-piperidin-1-yl-propyl)-pyrido[4,3-d]pyrimidine-2,5-diamine] showed an IC50 of under 30 µM. Compound Clc1ccccc1CNc1ncc2c(NCCCN3CCCC3)nccc2n1 [Compound 17, N2-(2-Chloro-benzyl)-N5-(3-pyrrolidin-1-yl-propyl)-pyrido[4,3-d]pyrimidine-2,5-diamine] has an IC50 of under 30 µM. Clc1ccccc1CNc1ncc2c(NCCN3CCCCC3)nccc2n1 [Compound 18, N2-(2-Chloro-benzyl)-N5-(2-piperidin-1-yl-ethyl)-pyrido[4,3-d]pyrimidine-2,5-diamine] was tested, and the IC50 was under 30 µM. Cc1ccc(CNc2ncc3c(Nc4ccc(F)cc4C)nccc3n2)cc1 [Compound 19, N5-(4-Fluoro-2-methyl-phenyl)-N2-(4-methyl-benzyl)-pyrido[4,3-d]pyrimidine-2,5-diamine] was tested, and the IC50 was under 30 µM. Fc1ccc(CNc2ncc3c(N4CCCC4)nccc3n2)cc1 [Compound 20, (4-Fluoro-benzyl)-(5-pyrrolidin-1-yl-pyrido[4,3-d]pyrimidin-2-yl)-amine] showed an IC50 of under 30 µM. For Fc1ccc(CNc2ncc3c(Nc4ccc(F)cc4)nccc3n2)cc1 [Compound 21, N2-(4-Fluoro-benzyl)-N5-(4-fluoro-phenyl)-pyrido[4,3-d]pyrimidine-2,5-diamine], the IC50 was under 30 µM. Cc1ccccc1Nc1nccc2nc(NCc3ccc(F)cc3)ncc12 [Compound 22, N2-(4-Fluoro-benzyl)-N5-o-tolyl-pyrido[4,3-d]pyrimidine-2,5-diamine] was tested, and the IC50 was under 30 µM. For COc1ccc(Nc2nccc3nc(NCc4ccc(F)cc4)ncc23)cc1 [Compound 23, N2-(4-Fluoro-benzyl)-N5-(4-methoxy-phenyl)-pyrido[4,3-d]pyrimidine-2,5-diamine], the IC50 was under 30 µM. Work on Fc1ccc(CNc2ncc3c(Nc4ccccc4F)nccc3n2)cc1 [Compound 24, N2-(4-Fluoro-benzyl)-N5-(2-fluoro-phenyl)-pyrido[4,3-d]pyrimidine-2,5-diamine] yielded an IC50 of under 30 µM. Fc1ccc(CNc2ncc3c(Nc4ccc(F)cc4F)nccc3n2)cc1 [Compound 25, N5-(2,4-Difluoro-phenyl)-N2-(4-fluoro-benzyl)-pyrido[4,3-d]pyrimidine-2,5-diamine] showed an IC50 of under 30 µM. For Fc1ccc(CNc2ncc3c(Nc4ccc5c(c4)OCO5)nccc3n2)cc1 [Compound 26, N5-Benzo[1,3]dioxol-5-yl-N2-(4-fluoro-benzyl)-pyrido[4,3-d]pyrimidine-2,5-diamine], the IC50 was under 30 µM. COc1ccc(Nc2nccc3nc(NCc4ccc(F)cc4)ncc23)cc1OC [Compound 27, N5-(3,4-Dimethoxy-phenyl)-N2-(4-fluoro-benzyl)-pyrido[4,3-d]pyrimidine-2,5-diamine] was tested, and the IC50 was under 30 µM. Work on Cc1cc(F)ccc1Nc1nccc2nc(NCc3ccc(F)cc3)ncc12 [Compound 28, N2-(4-Fluoro-benzyl)-N5-(4-fluoro-2-methyl-phenyl)-pyrido[4,3-d]pyrimidine-2,5-diamine] yielded an IC50 of under 30 µM. Fc1ccc(CNc2ncc3c(NCc4ccc5nonc5c4)nccc3n2)cc1 [Compound 29, N5-Benzo[1,2,5]oxadiazol-5-ylmethyl-N2-(4-fluoro-benzyl)-pyrido[4,3-d]pyrimidine-2,5-diamine] gave an IC50 of under 30 µM. Work on CC(C)CNc1nccc2nc(NCc3ccc(F)cc3)ncc12 [Compound 30, N2-(4-Fluoro-benzyl)-N5-isobutyl-pyrido[4,3-d]pyrimidine-2,5-diamine] yielded an IC50 of under 30 µM. COc1ccccc1CNc1ncc2c(N3CCCC3)nccc2n1 [Compound 31, (2-Methoxy-benzyl)-(5-pyrrolidin-1-yl-pyrido[4,3-d]pyrimidin-2-yl)-amine] gave an IC50 of under 30 µM. In the case of CCOc1ccccc1Nc1nccc2nc(NCc3ccccc3OC)ncc12 [Compound 32, N5-(2-Ethoxy-phenyl)-N2-(2-methoxy-benzyl)-pyrido[4,3-d]pyrimidine-2,5-diamine], the IC50 is reported as under 30 µM. COc1ccccc1CNc1ncc2c(Nc3ccc(F)cc3)nccc2n1 [Compound 33, N5-(4-Fluoro-phenyl)-N2-(2-methoxy-benzyl)-pyrido[4,3-d]pyrimidine-2,5-diamine] showed an IC50 of under 30 µM.

Source: patent publication US8530650B2, “2, 5-diamino-substituted pyrido [4, 3-D] pyrimidines as autotaxin inhibitors against cancer” (MERCK PATENT GmbH, priority 2008, dated 2013)
